These are literature values, as cited in US20190328884A1, “COMPOSITIONS AND METHODS OF THEIR USE” (Chemic Laboratories, Inc., priority 2018, published 2019).

For this data set the following is noted: in vivo.

For `NC(=O)N1c2ccccc2C=Cc2ccccc21` [carbamezepine], the “decrease in white blood cell count” value is on record as 25%, the “increase in the risk of blood dyscrasias” value is “five- to eight” and the “patients shown to have a 25% decrease in their white blood cell count” value is 7%.
